Data taken from patent publication EP1902732A1, “PROPHYLACTIC/THERAPEUTIC AGENT FOR HER2-EXPRESSING CANCER” (Takeda Pharmaceutical Company Limited, priority 2005, dated 2006).

Key:
DU145 = experiment: Viable cell count using Cell Counting Kit-F; format: cell-based; conditions: HER2-nonexpressing cancer, five days of culture
HER2 = experiment: Western blotting of phosphorylated HER2 in BT-474 cells; format: cell-based, human
Description: Human HER2-expressing human breast cancer cell line BT-474 (purchased from American Tissue Culture Collection (ATCC)) was seeded into a 24-multiwell plate (BT-474: 1.2 x 10^5 cells/well), and cultured overnight in a carbon dioxide gas incubator (5% CO2, 37°C). A 4-fold dilution series of a mitochondrial respiratory chain complex inhibiting compound (complex I: rotenone, complex III: antimycin, complex V: oligomycin: Wako Pure Chemical Industries) was added starting from a final concentration of 1 µmol/L in 5 steps while continuing culture. After 2 hours, the broth was removed, and the cells were lysed with an SDS sample buffer (200 µL). Western blotting analysis was performed as follows. Specifically, this cell lysate (8 µL) was separated by an SDS-PAGE method (gel concentration: 7.5-15%) (Analytical Biochemistry, No. 166, pp. 368-379, 1987), and transferred to a nitrocellulose membrane (BioRad). Then, an antibody specific to phosphorylated HER2 (Cell signaling technology, Code# 2244), an anti-phosphorylated Akt antibody specific to downstream antiapoptotic signal transducing molecule Akt (Cell signaling technology, Code# 9271) and an anti-phosphorylated MAPK antibody specific to downstream proliferation signal transducing molecule MAPK (Cell signaling technology, Code# 9101) were used to detect the antibody with an ECL system (Amersham) to quantify the amount of phosphorylated protein by an image analysis.
Human HER2-expressing human cancer cell line BT-474 (purchased from ATCC) was seeded into a 24-multiwell plate (1.2 x 10^5 cells/well) and cultured overnight in a carbon dioxide gas incubator (20% O2, 5% CO2, 37°C). A 3-fold dilution series of metformin that activates AMPK (The Journal of Biological Chemistry, Vol. 279, No. 42, pp. 43940-43951, 2004) was added starting from a final concentration of 15 mmol/L in 5 steps while continuing culture. Two hours later, the broth was removed and the cells were lysed with an SDS sample buffer (200 µL). This cell lysate (8 µL) was separated by an SDS-PAGE method (gel concentration: 7.5-15%) (Analytical Biochemistry, No. 166, pp. 368-379, 1987). Then, western blotting analysis was performed in the same manner as in Example 1 to quantify phosphorylated HER2, phosphorylated Akt and phosphorylated MAPK.
Human HER2-expressing human breast cancer cell line BT-474 (purchased from American Tissue Culture Collection (ATCC)) was seeded into a 24-multiwell plate (BT-474: 1.2 x 10^5 cells/well), and cultured overnight in a carbon dioxide gas incubator (5% CO2, 37°C). Mitochondrial respiratory chain complex 1-inhibiting compound rotenone (Wako Pure Chemical Industries) was added in 5 steps at final concentrations of 1, 0.333, 0.111, 0.033 and 0.011 µmol/L while continuing culture. Two hours later, the broth was removed and the cells were lysed with an SDS sample buffer (200 µL). Then, this cell lysate was used to perform western blotting analysis. Specifically, this cell lysate (8 µL) was separated by an SDS-PAGE method (gel concentration: 7.5-15%) (Analytical Biochemistry, No. 166, pp. 368-379, 1987) and transferred to a nitrocellulose membrane (BioRad). Then, an antibody specific to phosphorylated HER2 (Cell signaling technology, Code# 2244), an AMPK antibody specific to AMPK (Cell signaling technology, Code# 2535) and an anti-phosphorylated AMPK antibody specific to phosphorylated AMPK (Cell signaling technology, Code# 2532) were used to detect the antibody by chemiluminescent detection with an ECL system (Amersham) to quantify an amount of phosphorylated protein with LAS-1000 plus image analysis device (FUJIFILM).
Human HER2-expressing human breast cancer cell line BT-474 (purchased from American Tissue Culture Collection (ATCC)) was seeded into a 24-multiwell plate (BT-474: 1.2 x 10^5 cells/well) and cultured overnight in a carbon dioxide gas incubator (5% CO2, 37°C). […]

[1] = tested on: MDA-MB-453 breast cancer cell; experiment: Viable cell count using Cell Counting Kit-F; format: cell-based, human; conditions: MB453; HER2-expressing cancer; five days of culture
Description: (§1) BT-474 breast cancer cell, MDA-MB-453 breast cancer cell, A549 non-small cell lung cancer cell and LNCaP prostate cancer cell were used as human HER2-expressing cells while MDA-MB-231 breast cancer cell and A498 kidney cancer cell (all purchased from ATCC) were used as HER2-nonexpressing cells. Each of the cells used had been seeded into a 96-plate at 500cells/150 µL/well and cultured overnight. Each of the compounds, i.e., antimycin (final concentrations: 1, 0.1, 0.01 and 0.001 µmol/L), 2,4-dinitrophenol (final concentrations: 0.6, 0.2, 0.06 and 0.02 mmol/L), metformin (final concentrations: 25, 5, 1 and 0.2 mmol/L) and AICAR (final concentrations: 25, 5, 1 and 0.2 mmol/L) was diluted with a medium and added for 50 µL/well at a time to the final concentrations mentioned above. Following five days of culture at 37°C in 5% CO2, the cells were counted using Cell Counting Kit-F (Dojindo Laboratories).
(§2) Viable cell count using Cell Counting Kit-F was carried out by the following method according to the attached instruction. The supernatant was removed from the 96-well plate after five days of culture. Cell Counting Kit-F diluted 1000-fold with an RPMI medium (phenol red-free, serum-free) was added for 100 µL/well at a time. After 30 minutes of reaction at room temperature, fluorescence (excitation wavelength; 480 nm, fluorescent wavelength; 530 nm) was determined with a fluorescent plate reader.
(§3) From the determination results, percentage of the fluorescence level in the wells added with the compound was determined assuming that the fluorescence level in the wells without the addition of the compound (control) is 100%, and the remaining cellular quantity was determined in % with respect to that of the control.
(§4) BT-474 breast cancer cell, MDA-MB-453 breast cancer cell and LNCaP prostate cancer cell were used as human HER2-expressing cells while MDA-MB-231 breast cancer cell and A498 kidney cancer cell (all purchased from ATCC) were used as HER2-nonexpressing cells. Each of the cells used had been seeded into a 96-well plate at 500 cells/150 µL/well and cultured overnight. Troglitazone (final concentrations: 25, 6.25 and 1.56 µmol/L) was diluted with a medium, and added for 50 µL/well at a time to the final concentrations mentioned above. Following five days of culture at 37°C in 5% CO2, the cells were counted using Cell Counting Kit-F (Dojindo Laboratories).
as §3, with “troglitazone” for “the compound”

[2] = tested on: LNCaP prostate cancer cell; experiment: Viable cell count using Cell Counting Kit-F; format: cell-based, human; conditions: LNCaP; HER2-expressing cancer; five days of culture
Description: as §1, §2, §3, §4
as §3, with “troglitazone” for “the compound”

[3] = tested on: BT-474 breast cancer cell; experiment: Viable cell count using Cell Counting Kit-F; format: cell-based, human; conditions: BT474; HER2-expressing cancer; five days of culture
Description: as §1, §2, §3, §4
as §3, with “troglitazone” for “the compound”

[4] = Example 7, two hours, antimycin 1-0.01 nmol/L, oligomycin 100-1 ng/mL, 2,4-dinitrophenol 300-3 µmol/L

Compound | minimum concentrations for inhibiting cell proliferation for 50% or more (DU145) [mmol/L] | HER2 phosphorylation (HER2; [4]) | minimum concentrations for inhibiting cell proliferation for 50% or more [1] [mmol/L] | minimum concentrations for inhibiting cell proliferation for 50% or more [2] [mmol/L] | minimum concentrations for inhibiting cell proliferation for 50% or more [3] [mmol/L] | HER2 phosphorylation (HER2; Example 2, 4-fold dilution series from 1 µmol/L in 5 steps, 2 hours)
O=[N+]([O-])c1ccc(O)c([N+](=O)[O-])c1 [2,4-dinitrophenol] | 0.067 | decreased dose-dependently | <0.02 | <0.02 | <0.02 | 
antimycin | >0.0001 | decreased dose-dependently | 1e-06 | 1e-06 | 1e-06 | suppression of HER2 phosphorylation was confirmed
